Data published in patent publication US11618747B2, “LXR modulators with bicyclic core moiety” (OrsoBio, Inc., priority 2018, dated 2023).

Legend:
full length (FL) LXRβ = molecular target: T1, full length (FL) LXRβ (Homo sapiens, UniProt P55055, DUP175-175); assay: LXR Gal4 reporter transient transfection assay (FL-M2H Gal4β); assay type: cell-based; conditions: HEK293 cells, full length LXRβ; read-out: FL-M2H Gal4β (EC50 range)
T1 construct: the full length (FL) proteins of LXRα (amino acids 1-447); NP005684; NP009052; expressed in transfected cells; host or cells: HEK293
T1 sequence (P55055 with tags, fused parts or gaps DUP175-175): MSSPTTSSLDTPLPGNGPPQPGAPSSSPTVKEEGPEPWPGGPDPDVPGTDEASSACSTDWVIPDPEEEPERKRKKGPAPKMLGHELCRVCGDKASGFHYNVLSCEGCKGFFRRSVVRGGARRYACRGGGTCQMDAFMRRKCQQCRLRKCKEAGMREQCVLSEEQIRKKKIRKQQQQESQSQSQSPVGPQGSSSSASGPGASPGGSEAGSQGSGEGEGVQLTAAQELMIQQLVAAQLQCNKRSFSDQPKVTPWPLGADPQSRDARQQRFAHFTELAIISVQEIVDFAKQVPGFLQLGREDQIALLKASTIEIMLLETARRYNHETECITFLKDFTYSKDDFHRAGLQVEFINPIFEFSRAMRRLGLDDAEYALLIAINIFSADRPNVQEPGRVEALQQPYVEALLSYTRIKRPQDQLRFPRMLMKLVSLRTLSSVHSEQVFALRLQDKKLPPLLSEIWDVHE
In short: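 Cells (HEK293, 3.5×10^4/well) were plated 16-20 h, transfected with LXR, cofactor and reporter plasmids, treated with compound after 4 h, and lysed after a further 16 h. Interaction of LXR constructs with SRC1 or NCoR is detected by GAL4-driven Firefly luciferase.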

full length (FL) LXRα = molecular target: T2, full length (FL) LXRα (Homo sapiens, UniProt Q13133); assay: LXR Gal4 reporter transient transfection assay (FL-M2H Gal4α); assay type: cell-based; conditions: HEK293 cells, full length LXRα; read-out: FL-M2H Gal4α (EC50 range)
T2 construct: the full length (FL) proteins of LXRα (amino acids 1-447); NP005684; expressed in transfected cells; host or cells: HEK293
T2 sequence (Q13133 1-447): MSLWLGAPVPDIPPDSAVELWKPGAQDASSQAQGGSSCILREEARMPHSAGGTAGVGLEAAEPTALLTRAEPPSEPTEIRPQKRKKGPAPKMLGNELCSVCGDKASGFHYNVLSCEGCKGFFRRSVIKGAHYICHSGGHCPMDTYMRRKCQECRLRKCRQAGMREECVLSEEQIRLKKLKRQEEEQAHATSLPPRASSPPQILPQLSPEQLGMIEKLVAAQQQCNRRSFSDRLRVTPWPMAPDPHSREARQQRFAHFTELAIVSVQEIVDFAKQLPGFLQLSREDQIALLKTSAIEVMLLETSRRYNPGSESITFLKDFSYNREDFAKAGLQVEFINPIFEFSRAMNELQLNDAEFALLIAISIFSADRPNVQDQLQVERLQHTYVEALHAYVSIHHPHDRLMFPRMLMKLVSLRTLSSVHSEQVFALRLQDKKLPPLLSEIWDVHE
Protocol: The tested compounds were usually dissolved, tested and stored as 20 mM stock solutions in DMSO. Since sulfonyl acetic acid derivatives tend to decarboxylate under these conditions, these stock solutions were prepared, tested and stored as 20 mM DMSO stock solutions containing 100 mM trifluoroacetic Acid (5 equivalents). Sulfonyl acetic acid derivatives are shelf stable as solid at rt for long time as reported by Griesbrecht et al. (Synlett 2010:374) or Faucher et al. (J. Med. Chem. 2004; 47:18).
LXR Gal4 Reporter Transient Transfection Assays
LXRα and LXRβ activity status was determined via detection of interaction with coactivator and corepressor proteins in mammalian two-hybrid experiments (M2H). For this, via transient transfection the full length (FL) proteins of LXRα (amino acids 1-447; NP005684; SEQ ID NO:1) or LXRβ-(amino acids 1-461; NP009052; SEQ ID NO:2) or the ligand-binding domains (LBD) of LXRα (amino acids 155-447 SEQ ID NO:3) or LXRβ (amino acids 156-461; SEQ ID NO:4) were expressed from pCMV-AD (Stratagene) as fusions to the transcriptional activation domain of NFkB. As cofactors, domains of either the steroid receptor coactivator 1 (SRC1; amino acids 552-887; SEQ ID NO:5) or of the corepressor NCoR (amino acids 1906-2312; NP006302; SEQ ID NO:6) were expressed as fusions to the DNA binding domain of the yeast transcription factor GAL4 (from pCMV-BD; Stratagene). Interaction was monitored via activation of a coexpressed Firefly Luciferase Reporter gene under control of a promoter containing repetitive GAL4 response elements (vector pFRLuc; Stratagene). Transfection efficiency was controlled via cotransfection of constitutively active pRL-CMV Renila reniformis luciferase reporter (Promega). HEK293 cells were grown in minimum essential medium (MEM) with 2 mM L-glutamine and Earle's balanced salt solution supplemented with 8.3% fetal bovine serum, 0.1 mM non-essential amino acids, 1 mM sodium pyruvate, at 37° C. in 5% CO2. 3.5×10^4 cells/well were plated in 96-well cell culture plates in growth medium supplemented with 8.3% fetal bovine serum for 16-20 h to ˜90% confluency. For transfection, medium was taken off and LXR and cofactor expressing plasmids as well as the reporter plasmids are added in 30 μL OPTIMEM/well including polyethylene-imine (PEI) as vehicle. Typical amounts of plasmids transfected/well: pCMV-AD-LXR (5 ng), pCMV-BD-cofactor (5 ng), pFR-Luc (100 ng), pRL-CMV (0.5 ng). Compound stocks were prepared in DMSO, prediluted in MEM to a total volume of 120 μL, and added 4 h after addition of the transfection mixture (final vehicle concentration not exceeding 0.2%). Cells were incubated for additional 16 h, lysed for 10 min in 1× Passive Lysis Buffer (Promega) and Firefly and Renilla luciferase activities were measured sequentially in the same cell extract using buffers containing D-luciferine and coelenterazine, respectively. Measurements of luminescence were done in a BMG-luminometer.

[1] = molecular target: T3, LXRβ ligand-binding domain (Homo sapiens, UniProt P55055, DUP175-175); assay: TR-FRETβ activity assay (NCoA3 coactivator peptide recruitment); assay type: biochemical; conditions: TR-FRET, 1 μM 24(S)-25-epoxycholesterol prestimulation; read-out: FRETβ (EC50 range)
T3 construct: amino acids 156-461; NP009052; made in house; host or cells: E. coli
T3 sequence (P55055 with tags, fused parts or gaps DUP175-175 limits assumed): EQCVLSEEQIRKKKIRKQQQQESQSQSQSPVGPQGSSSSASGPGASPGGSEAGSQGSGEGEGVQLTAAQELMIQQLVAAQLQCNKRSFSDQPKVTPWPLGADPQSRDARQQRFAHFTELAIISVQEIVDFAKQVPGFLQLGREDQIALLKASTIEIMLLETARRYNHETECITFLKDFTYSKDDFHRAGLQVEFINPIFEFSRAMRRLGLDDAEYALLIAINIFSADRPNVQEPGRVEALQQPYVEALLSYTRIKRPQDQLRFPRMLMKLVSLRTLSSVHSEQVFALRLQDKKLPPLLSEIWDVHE
In short: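 Inverse agonism assessed by loss of coactivator recruitment, read as TR-FRET 665/615 nm after 1 h equilibration at 4 °C, in triplicate. Ten-point titration from 50 μM to 0.002 μM against LXRβ LBD (76 nM, GST fusion) prestimulated with 1 μM 24(S)-25-epoxycholesterol, with 400 nM NCoA3 peptide, pH 6.8. Sulfonyl acetic acids kept as 20 mM DMSO stocks with 100 mM TFA.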

SMILES	EC50 (full length (FL) LXRβ) [nM]	EC50 (full length (FL) LXRα) [nM]	EC50 [1] [nM]
Cc1ccc(S(=O)(=O)n2c(-c3cccc(N4CC(C(=O)O)C4)c3)c(-c3ccsc3C#N)c3cc(C#N)ccc32)cc1 [3/45]	100 to 1000	100 to 1000	1000 to 10000
Cc1ccc(S(=O)(=O)n2c(-c3cccc(-c4ccc(C(=O)O)nc4)c3)c(-c3ccsc3C#N)c3cc(F)ccc32)cc1 [3/47]	< 100	< 100	100 to 1000
Cc1ccc(S(=O)(=O)n2c(-c3cccc(-c4ccc(C(=O)O)c(Cl)c4)c3)c(-c3ccsc3C#N)c3cc(F)ccc32)cc1 [3/49]	< 100	< 100	100 to 1000
Cc1ccc(S(=O)(=O)n2c(-c3cccc(N4CCC(C)(C(=O)O)CC4)c3)c(-c3ccsc3C#N)c3cc(F)ccc32)cc1 [3/50]	< 100	< 100	100 to 1000
Cc1ccc(S(=O)(=O)n2c(-c3cccc(N4CC(C(=O)NC(C)(C)C(=O)O)C4)c3)c(-c3ccsc3C#N)c3cc(F)ccc32)cc1 [3/52]	100 to 1000	100 to 1000	100 to 1000
COc1cc(F)cc2c(-c3ccsc3C#N)c(-c3cccc(-c4ccc(C(=O)O)cc4)c3)n(S(=O)(=O)c3ccc(C)cc3)c12 [3/53]	< 100	< 100	< 100
Cc1ccc(S(=O)(=O)n2c(-c3cccc(-c4ccc(C(=O)O)cc4)c3)c(-c3ccsc3C#N)c3cc(F)cc(O)c32)cc1 [3/54]	< 100	< 100	100 to 1000
Cc1ccc(S(=O)(=O)n2c(-c3cccc(-c4ccc(C(C)(O)C(=O)O)cc4)c3)c(-c3ccsc3C#N)c3cc(F)ccc32)cc1 (stereo not drawn) [3/55]	< 100	< 100	100 to 1000
O=C(O)c1ccc(-c2cccc(-c3c(-c4ccccc4C4COC4)c4cc(F)ccc4n3S(=O)(=O)c3ccc(Cl)cc3)c2)c(Cl)c1 [3/56]	< 100	< 100	< 100
N#Cc1sccc1-c1c(-c2cccc(-c3ccc(C(=O)O)cc3Cl)c2)n(S(=O)(=O)c2ccc(Cl)cc2)c2ccc(F)cc12 [3/57]	< 100	< 100	100 to 1000
Cc1ccc(S(=O)(=O)n2c(-c3cccc(N4[C@@H]5CC[C@H]4C[C@@H](C(=O)O)C5)c3)c(-c3ccsc3C#N)c3cc(F)ccc32)cc1 [3/58]	< 100	< 100	1000 to 10000
N#Cc1sccc1-c1c(-c2cccc(N3CCC(C(=O)O)CC3)c2)n(S(=O)(=O)c2ccc(C(F)F)cc2)c2ccc(F)cc12 [3/60]	< 100	< 100	100 to 1000
O=C(O)c1ccc(-c2cccc(-c3c(-c4ccccc4C4(F)CNC4)c4cc(F)ccc4n3S(=O)(=O)c3ccc(C(F)F)cc3)c2)c(Cl)c1 [3/61]	100 to 1000	100 to 1000	100 to 1000
CN1CC(F)(c2ccccc2-c2c(-c3cccc(-c4ccc(C(=O)O)cc4Cl)c3)n(S(=O)(=O)c3ccc(C(F)F)cc3)c3ccc(F)cc23)C1 [3/62]	< 100	100 to 1000	100 to 1000
O=C(O)c1ccc(-c2cccc(-c3c(-c4ccsc4C4COC4)c4cc(F)ccc4n3S(=O)(=O)c3ccc(C(F)F)cc3)c2)c(Cl)c1 [3/63]	< 100	< 100	< 100
Cc1ccc(S(=O)(=O)n2c(-c3cccc(C4CC5(CC(C(=O)O)C5)C4)c3)c(-c3ccsc3C#N)c3cc(F)ccc32)cc1 (stereo not drawn) [3/65]	< 100	< 100	100 to 1000
CC1(C)CCN(S(=O)(=O)n2c(-c3cccc(-c4ccc(C(=O)O)cc4)c3)c(-c3ccsc3C#N)c3ccccc32)CC1 [3/66]	100 to 1000	100 to 1000	1000 to 10000
N#Cc1cccc(C#N)c1-c1c(-c2cccc(N3CC(C(=O)O)C3)c2)n(S(=O)(=O)c2ccc(C(F)F)cc2)c2ccc(F)cc12 [3/67]	100 to 1000	100 to 1000	100 to 1000
N#Cc1cccc(C#N)c1-c1c(-c2cccc(C3CC3C(=O)O)c2)n(S(=O)(=O)c2ccc(C(F)F)cc2)c2ccc(F)cc12 (stereo not drawn) [3/68]	< 100	< 100	100 to 1000
O=C(O)c1ccc(-c2cccc(-c3c(-c4cccc5oncc45)c4cc(F)ccc4n3S(=O)(=O)c3ccc(C(F)F)cc3)c2)c(Cl)c1 [3/69]	100 to 1000	100 to 1000	100 to 1000
N#Cc1cccc(C#N)c1-c1c(-c2cccc(-c3ccc(C(=O)O)cc3Cl)c2)n(S(=O)(=O)c2ccc(C(F)F)cc2)c2cnc(O)cc12 [3/70]	100 to 1000	100 to 1000	100 to 1000
N#Cc1cccc(C#N)c1-c1c(-c2cccc(-c3c(F)cc(OCC(=O)O)cc3F)c2)n(S(=O)(=O)c2ccc(C(F)F)cc2)c2ccc(F)cc12 [3/71]	< 100	< 100	< 100
CC(O)(C(=O)O)c1cc(F)c(-c2cccc(-c3c(-c4c(C#N)cccc4C#N)c4cc(F)ccc4n3S(=O)(=O)c3ccc(C(F)F)cc3)c2)c(F)c1 (stereo not drawn) [3/72]	< 100	< 100	< 100
Cc1ccc(S(=O)(=O)n2c(-c3cccc(C4CC4C(=O)O)c3)c(-c3ccsc3C#N)c3ccncc32)cc1 (stereo not drawn) [4/1]	< 100	100 to 1000	1000 to 10000
